Patent US8603751B2, “Mycobacterial disease detection, treatment, and drug discovery” (priority 2006, dated 2013)
“Also recorded” adds a separate entry of the source.

Key:
Msm cells = assay: Effect of screened compounds on cell viability (control plates of the M-PFC screen); conditions: at high concentrations
Mycobacterial cells = assay: Viability of Mycobacterial cells with rapamycin; conditions: rapamycin concentrations as high as 200 μg/mL
[1] = target: T1, Esat6-Cfp10 (Rv3875-Rv3874) interaction (Mycobacterium tuberculosis, UniProt P9WNK5+P9WNK7); assay: M-PFC counter-screen with the Esat6-Cfp10 interacting pair; assay type: cell-based
T1 construct: The complete open reading frames (ORF) were cloned into pUAB100 and pUAB200; Gly10 linker + mDHFR fragment F[1,2]; Gly10 linker + mDHFR fragment F[3]; expressed in transfected cells; host or cells: Mycobacterium smegmatis

[2] = target: DevS(HKD)-DevR interaction (Mycobacterium tuberculosis, UniProt P9WMF9); assay: M-PFC TRIM plate assay of the DevS(HKD)-DevR interaction; assay type: cell-based; conditions: 10 and 25 μg/mL, TRIM plates, FIG. 12
Source text: Additionally, whether inhibition of DevR dimerization effected upstream interactions with DevR and DevS (Rv3132c), a corresponding sensor histidine kinase involved in the Mycobacterium dormancy pathway was investigated.

Msm = conditions: on 7H11

Sequence of DevS(HKD)-DevR interaction (P9WMF9 whole entry, looked up): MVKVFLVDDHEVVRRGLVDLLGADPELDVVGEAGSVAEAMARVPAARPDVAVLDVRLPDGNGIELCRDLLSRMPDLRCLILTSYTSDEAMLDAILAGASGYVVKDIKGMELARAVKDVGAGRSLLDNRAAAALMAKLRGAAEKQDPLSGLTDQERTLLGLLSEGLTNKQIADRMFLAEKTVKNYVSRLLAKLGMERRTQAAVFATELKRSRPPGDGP
T1 sequence (P9WNK7 whole entry, the tested form may be a part): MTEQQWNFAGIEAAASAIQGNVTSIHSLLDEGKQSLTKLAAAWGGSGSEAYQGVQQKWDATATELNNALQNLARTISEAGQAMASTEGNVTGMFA
T1 sequence (P9WNK5 whole entry, the tested form may be a part): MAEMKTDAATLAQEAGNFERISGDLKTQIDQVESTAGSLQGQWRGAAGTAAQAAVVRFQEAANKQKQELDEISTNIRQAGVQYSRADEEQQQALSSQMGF

## Cl.Cn1c(=N)n(CC(=O)c2cc(C(C)(C)C)c(O)c(C(C)(C)C)c2)c2ccccc21 [1-(3,5-di-tert-butyl-4-hydroxyphenyl)-2-(2-imino-3-methyl-2,3-dihydro-1H-benzimidazol-1-yl)ethanone hydrochloride]
Msm cells
  effect on cell viability: effect cell viability at high concentrations

## CO[C@H]1C[C@@H]2CC[C@@H](C)[C@@](O)(O2)C(=O)C(=O)N2CCCC[C@H]2C(=O)O[C@H]([C@H](C)C[C@@H]2CC[C@@H](O)[C@H](OC)C2)CC(=O)[C@H](C)/C=C(\C)[C@@H](O)[C@@H](OC)C(=O)[C@H](C)C[C@H](C)/C=C/C=C/C=C/1C [rapamycin]
Mycobacterial cells
  viability of the Mycobacterial cells: not effected

## CC(=O)NS(=O)(=O)c1ccc(NC(=O)CCc2ccccc2)cc1 [N-(4-[(acetylamino)sulfonyl]phenyl)-3-phenylpropanamide]
[1]
  effect on the Esat6-Cfp10 interaction: unaffected
[2]
  disruption of the DevS(HKD)-DevR interaction: disrupt the DevS(HKD)-DevR interaction; also recorded: capable of disrupting the DevS(HKD)-DevR interaction

## COc1cc(Cc2cnc(N)nc2N)cc(OC)c1OC [TRIM, trimethoprim]
Msm
  TRIM concentration to which Msm is sensitive: ~40 µg/mL
